Entries after “also recorded” stand apart in the source; their conditions may differ. Read-outs that look alike come from different tables or passages of the source. Starred links: 1 amine or outer side, 2 acyl side, 3 side chain; linkers in the order of their positions; H or OH if unused. Positions of bridges follow the written chain, without caps; N, C: chain ends. Non-standard residues stand in square brackets, D forms with d. Residues, ends and D or L forms follow the SMILES beside them. Chains are numbered I, II in the order given. Actinocin(9to1) = Cc1c2oc3c(C)ccc(C(=O)[*:1])c3nc-2c(C(=O)[*:2])c(N)c1=O; NMeV = CN[C@H](C(=O)O)C(C)C; Sar = CNCC(=O)O
Assays:
[1] = system: 27 liver cancer PDO lines; test: High throughput screening of NCI VII 129-drug panel on 27 liver cancer PDO lines (CellTiter-Glo); assay type: cell-based, human; details: for inter patient effect (mean cell viability per patient cancer specimen): across the 5 patients' cancers; for effectiveness across the cohort of primary liver mini-cancers / all 27 liver cancer PDO lines: 10 uM, CellTiter-Glo
Source text: To pick out inter patient divergent drugs (i.e., drugs with discordant effect across the 5 patients), we calculated the mean cell viability per patient cancer specimen by averaging the effect of the drugs across all PDO lines established for the same patient. This mean cell viability per patient is a measure of how the tumor, as a whole, responds to a certain drug. Next, we calculated the standard deviation of the 5 means (one per patient) and ordered the data in decreasing order of the standard deviation. […] To further visualize the inter-patient divergence of drug effects, the inventors constructed a heat map of drug responses per each patient (utilizing the mean cell viability over all clones from each patient, FIG. 20B).
(§1) This intra tumor functional heterogeneity was investigated by calculating the standard deviation of a drug response across all PDO lines established from a patient tumor. […] The inventors chose one of the cancer specimens (CCA8) for further in-depth studies of intra-tumor functional heterogeneity and the identification of its drivers. […] To visualize this phenomenon, we calculated the standard deviation of each drug effect across the 6 PDOs (FIG. 20D). […] To this end, we first chose drugs that induced 30% or less viability in at least one of the 6 sister CCA PDO lines when tested at a 10 uM concentration. […] Of note, there is no known genetic alteration (mutational or otherwise) to predict the response of human cancers to proteasome inhibitors.
Take out Matrigel from −20 C and keep at 4 C overnight. Also keep pipette tips at 4 C overnight. Count cells. Mix cells with Matrigel so that you have 200 cells per uL of Matrigel. […] Plate 2 rows, then stop. Wait till the Matrigel is solid. Then add 100 uL of growth passage media. Then continue till all plate is filled up with cells. Place plate into incubator. Take picture with white light. After 4 days replace the media with media containing drugs (90 uL media+10 uL drug work solution). Use a multi-pipette.
(§2) PDOs were plated in 96-well or 384-well plates and cultured for 3 days. Next, media was changed with drug-containing media. The initial screen was performed at a concentration of 10 uM. After 4 days, viability was determined in each well with Cell TiterGlo (Cat #: G7572, Promega, Wis.) following the manufacturer's instruction. […] was measured with a plate reader (Perkin-Elmer EnVision Plate Reader). Drugs that induced less than 50% viability were chosen for future studies.

[2] = system: CCA8 sister CCA PDO lines; test: 129-drug panel on the 6 sister PDO lines of CCA8; assay type: cell-based, human
Source text: as §1, §2

[3] = system: CCA PDO; test: Drug testing on a CCA PDO line read by white light / bright field images; assay type: cell-based, human; details: for effect on PDO (shape, number or size of cystic PDO structures): 9-drug library, 10 uM, white light images; for effect on PDO growth (cytocidal / cytostatic): over 96 hours
Experimental: In preliminary studies, the inventors have obtained resection cancer tissue from 10 CCA patients. […] Pilots experiments were performed with a 9-drug library, at a standard HT screening drug concentration of 10 uM. For positive control, the inventors used 10% Triton X, while for negative control the inventors used DMSO at same concentration used to dissolve drugs. […] As proof of concept, the inventors then expanded to the 1,600 drug JHCCL Hopkins library (data not shown). […] This scale-up required a reproducible and accurate read out. We chose CellTiter-Glo (Promega), an ATP-based cytotoxicity assay that quantifies metabolically active cells. […] Next, the inventors sought to determine IC50s. […] Next, the inventors performed whole exome sequencing on a subset of these CCA PDOs. […] The inventors next performed pilot trials with high-content imaging. We utilized DRAQ5 (red) to stain nuclei and YOYO-1 (green in FIG. 9) to stain dead cells. In this experiment, we treated a CCA PDO culture with Gemcitabine, at concentrations from 10 to 0.1 uM. […] FIG. 10 is a representative 100× Hematoxylin and Eosin image of a PDX tumor.
Initial drug testing experiments were performed on one PDO line, with a 9-drug library, at a standard HT screening drug concentration of 10 uM. For these experiments, we utilized a CCA PDO line. For positive control, we used 10% Triton X, while for negative control we used DMSO […] same concentration used to dissolve drugs. For these experiments, we utilized white light images and equated the killing effect of drugs into shrinking of PDO cystic structures. […] To this end, we tested the 5 chemotherapy agents typically used in CCA patients, as well as several combinations (FIG. 18C). […] Next, we sought a fast, reproducible and relatively inexpensive read out of cell death (or inhibited proliferation). We chose CellTiter-Glo (Promega), which is an ATP-based cytotoxicity assay that quantifies metabolically active cells. […] Therefore, we have used CellTiter-Glo for all subsequent experiments. […] By using CellTiter-Glo, we quantified the viability of cells treated with single agents as well as combinations (as in FIG. 18C).

[4] = system: HCC; details: HCC patients; cited from earlier work

Compound	killing effect / activity across the 6 PDO lines ([2]; CCA8, 10 uM)	effectiveness across the cohort of primary liver mini-cancers / all 27 liver cancer PDO lines [1]	further results
Cc1c2oc3c(C)ccc(C(=O)N[C@@H]4C(=O)N[C@H](C(C)C)C(=O)N5CCC[C@H]5C(=O)N(C)CC(=O)N(C)[C@@H](C(C)C)C(=O)O[C@@H]4C)c3nc-2c(C(=O)N[C@@H]2C(=O)N[C@H](C(C)C)C(=O)N3CCC[C@H]3C(=O)N(C)CC(=O)N(C)[C@@H](C(C)C)C(=O)O[C@@H]2C)c(N)c1=O [Dactinomycin, dactinomycin] (I: T[dV]P[Sar][NMeV] / II: T[dV]P[Sar][NMeV]; ester I:1-I:C, II:1-II:C; linker I:N-II:N via Actinocin(9to1))	–	–	inter patient effect (mean cell viability per patient cancer specimen) [1]: work well in just 1 cancer
N[C@@H](Cc1ccc(N(CCCl)CCCl)cc1)C(=O)O [Melphalan]	uniformly ineffective	–	–
COc1cccc2c1C(=O)c1c(O)c3c(c(O)c1C2=O)C[C@@](O)(C(=O)CO)C[C@@H]3O[C@H]1C[C@H](N)[C@@H](O)[C@H](C)O1 [Epirubicin]	wide response	–	–
Nc1ccn([C@@H]2O[C@H](CO)[C@@H](O)C2(F)F)c(=O)n1 [Gemcitabine]	moderate activity in 1/6 and poor activity in 5/6 PDO lines	–	inter patient effect (mean cell viability per patient cancer specimen) [1]: work in majority of cancers, but not in all of them; effect on PDO (shape, number or size of cystic PDO structures) [3]: moderate cytostatic but not a cytocydal effect; effect on PDO growth (cytocidal / cytostatic) [3]: moderate cytostatic, but not cytocidal effect; effect on PDO growth (cytocidal / cytostatic) ([3]; listed as Gemicitabine): partially effective
O=C1CCC(N2C(=O)c3ccccc3C2=O)C(=O)N1 (stereo not shown) [Thalidomide]	uniformly ineffective	–	–
CC(C)C[C@H](NC(=O)CNC(=O)c1cc(Cl)ccc1Cl)B(O)O [Ixazomib, ixazomib]	effective across the 6 PDO lines	pan-effective	–
Cc1cc(Nc2ncc(Cl)c(Nc3ccccc3S(=O)(=O)C(C)C)n2)c(OC(C)C)cc1C1CCNCC1 [Ceritinib]	high activity in 3/6 and almost no activity in the rest 3/6 PDO lines	–	–
N.N.[Cl][Pt][Cl] [Cisplatin]	uniformly ineffective	–	effect on PDO (shape, number or size of cystic PDO structures) [3]: no effect; also recorded: did not appear to have any effect; effect on PDO (shape, number or size of cystic PDO structures) ([3]; listed as cisplatin): no effect on the round shape of PDO; effectiveness in CCAs tested ([3]; all 6 CCAs tested): ineffective; effect on PDO growth (cytocidal / cytostatic) [3]: ineffective; also recorded: unaffected PDO growth
CC(=O)[C@]1(O)Cc2c(O)c3c(c(O)c2[C@@H](O[C@H]2C[C@H](N)[C@H](O)[C@H](C)O2)C1)C(=O)c1ccccc1C3=O [Idarubicin, idarubicin]	effective across the 6 PDO lines	pan-effective	–
COc1cccc2c1C(=O)c1c(O)c3c(c(O)c1C2=O)C[C@@](O)(C(C)=O)C[C@@H]3O[C@H]1C[C@H](N)[C@H](O)[C@H](C)O1 [daunorubicin]	–	pan-effective	–
COC(=O)C[C@](O)(CCCC(C)(C)O)C(=O)O[C@@H]1C(OC)=C[C@]23CCCN2CCc2cc4c(cc2[C@H]13)OCO4 [Omacetaxine, omacetaxine]	wide response	–	–
Cc1[nH]c2ccccc2c1CCNCc1ccc(/C=C/C(=O)NO)cc1 [Panobinostat, panobinostat]	–	pan-effective	–
C/C=C1\NC(=O)[C@H]2CSSCC/C=C/[C@H](CC(=O)N[C@H](C(C)C)C(=O)N2)OC(=O)[C@H](C(C)C)NC1=O [Romidepsin, romidepsin]	effective across the 6 PDO lines	pan-effective	–
plicamycin	effective across the 6 PDO lines	pan-effective	–
CC(C)C[C@H](NC(=O)[C@H](CCc1ccccc1)NC(=O)CN1CCOCC1)C(=O)N[C@@H](Cc1ccccc1)C(=O)N[C@@H](CC(C)C)C(=O)[C@@]1(C)CO1 [Carfilzomib, carifilzomib]	effective across the 6 PDO lines	pan-effective	–
CC[C@]1(O)C[C@H]2CN(CCc3c([nH]c4ccccc34)[C@@](C(=O)OC)(c3cc4c(cc3OC)N(C=O)[C@H]3[C@@](O)(C(=O)OC)[C@H](OC(C)=O)[C@]5(CC)C=CCN6CC[C@]43[C@@H]65)C2)C1 [vincristine]	–	–	inter patient effect (mean cell viability per patient cancer specimen) [1]: work well in just 1 cancer
CC[C@@]1(O)C(=O)OCc2c1cc1n(c2=O)Cc2cc3c(CN(C)C)c(O)ccc3nc2-1 [topotecan]	–	pan-effective	–
CNC(=O)c1cc(Oc2ccc(NC(=O)Nc3ccc(Cl)c(C(F)(F)F)c3)cc2)ccn1 [Sorafenib]	–	–	inter patient effect (mean cell viability per patient cancer specimen) [1]: work in majority of cancers, but not in all of them; improvement of survival [4]: 3 months; side effects [4]: severe side effects
CO[C@@]12[C@H](COC(N)=O)C3=C(C(=O)C(C)=C(N)C3=O)N1C[C@@H]1N[C@@H]12 [Mitomycin, mitomycin]	–	–	killing effect / activity across the 6 PDO lines [2]: effective across the 6 PDO lines
CCC1=C[C@@H]2CN(C1)Cc1c([nH]c3ccccc13)[C@@](C(=O)OC)(c1cc3c(cc1OC)N(C)[C@H]1[C@@](O)(C(=O)OC)[C@H](OC(C)=O)[C@]4(CC)C=CCN5CC[C@]31[C@@H]54)C2 [Vinorelbine]	–	–	effect on PDO (shape, number or size of cystic PDO structures) [3]: effective
CC[C@H](Nc1ncnc2[nH]cnc12)c1nc2cccc(F)c2c(=O)n1-c1ccccc1 [Idelalisib]	uniformly ineffective	–	–
CS(=O)(=O)CCNCc1ccc(-c2ccc3ncnc(Nc4ccc(OCc5cccc(F)c5)c(Cl)c4)c3c2)o1 [Lapatinib]	uniformly ineffective	–	–
O=C(/C=C/c1cccc(S(=O)(=O)Nc2ccccc2)c1)NO [Belinostat]	moderate activity in 1/6 PDO lines and generally poor activity in 5/6	–	–
N#Cc1ccc(C(c2ccc(C#N)cc2)n2cncn2)cc1 [Letrozole]	uniformly ineffective	–	–
COc1cccc2c1C(=O)c1c(O)c3c(c(O)c1C2=O)C[C@@](O)(C(=O)CO)C[C@@H]3O[C@H]1C[C@H](N)[C@H](O)[C@H](C)O1 [Doxorubicin]	–	–	inter patient effect (mean cell viability per patient cancer specimen) [1]: work in majority of cancers, but not in all of them
